Source: article PMC10535268, “Design, Synthesis, and Evaluation of Novel Indole Hybrid Chalcones and Their Antiproliferative and Antioxidant Activity” (Molecules, 2023)

Columns and labels:
[1] = test system: breast cancer cells; details: flow cytometry, Western blot, fluorescence microscopy; cited from earlier work
[2] = test system: Jurkat; assay: MTT antiproliferative assay, Jurkat; assay type: cell-based, human; details: 72 h incubation, mean ± SD of three independent experiments
[3] = Ferric reducing antioxidant power (FRAP); details: sample 1 mM, 30 min, gallic acid equivalents, mean (±SD), triplicate
From the text: (§1) Table 3 Antioxidant activity.

[4] = test system: MCF-10A; assay: MTT cytotoxicity assay, non-cancer MCF-10A; assay type: cell-based, human; details: 72 h incubation, mean ± SD of three independent experiments
[5] = DPPH radical scavenging activity; details: sample 1 mM, 30 min, gallic acid equivalents, mean (±SD), triplicate
[6] = test system: HCT116; assay: MTT antiproliferative assay, HCT116; assay type: cell-based, human; details: HCT116, 72 h incubation, mean ± SD of three independent experiments
[7] = test system: MDA-MB-231; assay: MTT antiproliferative assay, MDA-MB-231; assay type: cell-based, human; details: MDA-MB-231, 72 h incubation, mean ± SD of three independent experiments
[8] = test system: Hela; assay: MTT antiproliferative assay, HeLa; assay type: cell-based, human; details: 72 h incubation, mean ± SD of three independent experiments
Method: Table 2 IC50 (μM) ± SD of tested compounds in different cell lines after 72 h incubation. | column: Cell Line, IC50 (µM) ± SD / Hela

[9] = test system: MCF-7; assay: MTT antiproliferative assay, MCF-7; assay type: cell-based, human; details: MCF-7, 72 h incubation, mean ± SD of three independent experiments
[10] = ABTS radical scavenging activity; details: sample 1 mM, 30 min, gallic acid equivalents, mean (±SD), triplicate
From the text: as §1

[11] = test system: normal human liver cell line (L02); design: method as in Lagu et al. 19; details: ref Lagu et al. 19; cited from earlier work
[12] = design: method as in Lagu et al. 19; details: compared to standard drugs; ref Lagu et al. 19; cited from earlier work
[13] = test system: Bj-5ta; assay: MTT cytotoxicity assay, non-cancer Bj-5ta; assay type: cell-based, human; details: Homo sapiens, 72 h incubation, mean ± SD of three independent experiments

**Q.** With `CCCOc1[nH]c2ccccc2c1/C=C/C(=O)c1ccccc1F` [11f, (2E)-1-(2″-Fluorophenyl)-3-(2′-propoxy-1′H-indol-3′-yl)prop-2-en-1-one] as the compound, how does the “mode of cell death” value [1] read?
**A.** The value was “induce cell cycle arrest in the G2/M phase and apoptosis”.

**Q.** And the IC50 [2]?
**A.** The IC50 was 37.7 ± 1.1 µM.

**Q.** What about the FRAP [3] of the same compound?
**A.** The FRAP was 183.5 (±0.9) µmol GAE/mmol.

**Q.** And the IC50 [4]?
**A.** Its IC50 is greater than 100 µM.

**Q.** What about the “IC50 (µM) ± SD, MCF-10A” value [4] of the same compound?
**A.** Its value is “minimal effect”.

**Q.** What about the DPPH [5] of the same compound?
**A.** The DPPH was 227.3 (±11.0) µmol GAE/mmol.

**Q.** What about the IC50 [6] of the same compound?
**A.** Its IC50 is 34.4 ± 1.1 µM.

**Q.** What about the IC50 [7] of the same compound?
**A.** The IC50 was 34 ± 3 µM.

**Q.** And the IC50 [8]?
**A.** The IC50 was 45.3 ± 0.7 µM.

**Q.** And the IC50 [9]?
**A.** The IC50 was 37.3 ± 1.5 µM.

**Q.** What about the ABTS [10] of the same compound?
**A.** Its ABTS is 175.1 (±10.4) µmol GAE/mmol.

**Q.** Which results are given for `O=C(/C=C/c1c[nH]c2ccccc12)c1ccc(C(F)(F)F)cc1` [12a, (2E)-3-(1H-indol-3-yl)-1-(4-trifluoromethylphenyl) prop-2-en-1-one]?
**A.** cytotoxicity on normal human liver cell line (L02) [11]: without showing cytotoxicity; IC50 ([2]; Homo sapiens): > 100 µM; IC50 ([4]; Homo sapiens, MCF-10A, 72 h): > 100 µM; IC50 ([6]; Homo sapiens, HCT-116, 72 h): 59.1 ± 1.1 µM; IC50 ([7]; Homo sapiens): > 100 µM; melting point: 195 to 197 °C; IC50 ([8]; Homo sapiens, HeLa, 72 h): 68.1 ± 3.3 µM; IC50 ([9]; Homo sapiens, MCF7, 72 h): 43.4 µM; IC50 [9]: 43.3 ± 0.6 µM; antimicrobial activity [12]: greatest antimicrobial activity; IC50 [13]: > 100 µM
